Where two headings read alike, the source gives them in different places.
Tests used:
PI3Kγ = PI3Kγ (Homo sapiens, UniProt P48736); assay: ADP-Glo luminescent assay, enzymatic activity of PI3K gamma; format: biochemical; conditions: ATP 25 μM; read-out: PI3K gamma (nM) inhibitory activity (IC50)
PI3K gamma = target: T1, PI3K gamma (Mus musculus, UniProt Q9JHG7); assay: Raw264.7 cell assay: phosphorylation of AKT in C5a stimulated RAW264.7 cells (AlphaLISA); format: cell-based; conditions: pAKT, read-out: PI3K gamma Raw264.7 cell (nM) cellular activity (IC50)
T1 construct: endogenous in cells; host or cells: RAW264.7
T1 sequence (Q9JHG7 whole entry): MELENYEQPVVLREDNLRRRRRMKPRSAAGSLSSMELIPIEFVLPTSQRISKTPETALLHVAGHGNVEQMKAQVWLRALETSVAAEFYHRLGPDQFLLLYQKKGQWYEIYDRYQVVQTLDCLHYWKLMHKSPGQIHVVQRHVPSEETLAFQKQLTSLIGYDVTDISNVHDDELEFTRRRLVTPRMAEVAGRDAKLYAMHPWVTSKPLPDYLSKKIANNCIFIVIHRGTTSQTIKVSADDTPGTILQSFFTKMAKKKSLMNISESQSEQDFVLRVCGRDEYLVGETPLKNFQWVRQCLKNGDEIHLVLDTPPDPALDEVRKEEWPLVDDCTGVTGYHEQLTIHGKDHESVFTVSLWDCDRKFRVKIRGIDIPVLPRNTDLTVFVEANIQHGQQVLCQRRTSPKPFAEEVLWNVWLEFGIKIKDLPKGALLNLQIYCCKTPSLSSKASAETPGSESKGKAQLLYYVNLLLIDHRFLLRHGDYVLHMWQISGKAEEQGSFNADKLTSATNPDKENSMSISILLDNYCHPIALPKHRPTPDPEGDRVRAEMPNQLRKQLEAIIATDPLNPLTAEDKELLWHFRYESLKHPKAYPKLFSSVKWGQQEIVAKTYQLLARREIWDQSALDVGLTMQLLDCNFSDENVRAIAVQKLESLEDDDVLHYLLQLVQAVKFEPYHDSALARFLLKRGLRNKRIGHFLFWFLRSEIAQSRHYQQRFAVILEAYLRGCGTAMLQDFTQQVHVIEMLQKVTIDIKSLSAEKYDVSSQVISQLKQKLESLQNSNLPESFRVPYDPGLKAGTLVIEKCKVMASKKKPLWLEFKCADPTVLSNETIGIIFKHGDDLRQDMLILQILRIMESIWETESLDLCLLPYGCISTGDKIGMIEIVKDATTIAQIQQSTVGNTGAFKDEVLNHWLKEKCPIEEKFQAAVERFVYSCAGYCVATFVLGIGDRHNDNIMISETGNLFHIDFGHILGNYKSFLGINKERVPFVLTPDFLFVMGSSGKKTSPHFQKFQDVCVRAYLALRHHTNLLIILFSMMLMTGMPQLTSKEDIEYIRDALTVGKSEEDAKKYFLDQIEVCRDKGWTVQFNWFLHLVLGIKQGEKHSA
T1 sequence (Q5SW28 whole entry partner): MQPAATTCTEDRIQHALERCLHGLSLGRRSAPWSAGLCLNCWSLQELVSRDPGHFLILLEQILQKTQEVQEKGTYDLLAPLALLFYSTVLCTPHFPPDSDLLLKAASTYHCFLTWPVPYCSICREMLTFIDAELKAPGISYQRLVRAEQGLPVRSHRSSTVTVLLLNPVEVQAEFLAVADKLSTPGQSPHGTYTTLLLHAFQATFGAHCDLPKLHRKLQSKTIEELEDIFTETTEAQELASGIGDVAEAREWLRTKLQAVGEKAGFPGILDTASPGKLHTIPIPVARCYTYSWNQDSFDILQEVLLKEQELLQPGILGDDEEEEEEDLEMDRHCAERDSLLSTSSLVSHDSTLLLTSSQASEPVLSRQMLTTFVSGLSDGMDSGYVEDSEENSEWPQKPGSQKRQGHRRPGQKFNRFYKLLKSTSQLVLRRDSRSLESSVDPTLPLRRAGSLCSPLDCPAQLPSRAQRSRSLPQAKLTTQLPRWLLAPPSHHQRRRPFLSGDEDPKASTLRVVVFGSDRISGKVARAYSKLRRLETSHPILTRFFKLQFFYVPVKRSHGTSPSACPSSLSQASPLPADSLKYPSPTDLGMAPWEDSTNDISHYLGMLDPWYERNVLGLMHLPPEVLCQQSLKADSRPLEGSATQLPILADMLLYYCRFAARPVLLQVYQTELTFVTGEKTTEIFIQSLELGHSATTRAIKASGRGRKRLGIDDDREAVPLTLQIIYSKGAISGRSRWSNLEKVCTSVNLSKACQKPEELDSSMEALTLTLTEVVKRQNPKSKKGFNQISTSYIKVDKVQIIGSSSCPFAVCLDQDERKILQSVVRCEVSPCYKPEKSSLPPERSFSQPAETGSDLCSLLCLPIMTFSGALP
Outline: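 Passage-15 RAW264.7 cells were plated and rested 2 h at 37 °C, then given compound for 30 min at 37 °C before C5a stimulation. Lysates went to phospho-AKT AlphaLISA with a 2 h dark incubation at 25 °C. IC50 came from a four-parameter logistic fit of inhibition against log concentration.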

PI3K delta = target: T2, PI3K delta (Homo sapiens, UniProt O00329); assay: Raji cell assay: phosphorylation of AKT in anti-IgM stimulated Raji cells (AlphaLISA); format: cell-based; conditions: pAKT, read-out: PI3K delta Raji cell (nM) cellular activity (IC50)
T2 construct: endogenous in cells; host or cells: Raji
T2 sequence (O00329 whole entry): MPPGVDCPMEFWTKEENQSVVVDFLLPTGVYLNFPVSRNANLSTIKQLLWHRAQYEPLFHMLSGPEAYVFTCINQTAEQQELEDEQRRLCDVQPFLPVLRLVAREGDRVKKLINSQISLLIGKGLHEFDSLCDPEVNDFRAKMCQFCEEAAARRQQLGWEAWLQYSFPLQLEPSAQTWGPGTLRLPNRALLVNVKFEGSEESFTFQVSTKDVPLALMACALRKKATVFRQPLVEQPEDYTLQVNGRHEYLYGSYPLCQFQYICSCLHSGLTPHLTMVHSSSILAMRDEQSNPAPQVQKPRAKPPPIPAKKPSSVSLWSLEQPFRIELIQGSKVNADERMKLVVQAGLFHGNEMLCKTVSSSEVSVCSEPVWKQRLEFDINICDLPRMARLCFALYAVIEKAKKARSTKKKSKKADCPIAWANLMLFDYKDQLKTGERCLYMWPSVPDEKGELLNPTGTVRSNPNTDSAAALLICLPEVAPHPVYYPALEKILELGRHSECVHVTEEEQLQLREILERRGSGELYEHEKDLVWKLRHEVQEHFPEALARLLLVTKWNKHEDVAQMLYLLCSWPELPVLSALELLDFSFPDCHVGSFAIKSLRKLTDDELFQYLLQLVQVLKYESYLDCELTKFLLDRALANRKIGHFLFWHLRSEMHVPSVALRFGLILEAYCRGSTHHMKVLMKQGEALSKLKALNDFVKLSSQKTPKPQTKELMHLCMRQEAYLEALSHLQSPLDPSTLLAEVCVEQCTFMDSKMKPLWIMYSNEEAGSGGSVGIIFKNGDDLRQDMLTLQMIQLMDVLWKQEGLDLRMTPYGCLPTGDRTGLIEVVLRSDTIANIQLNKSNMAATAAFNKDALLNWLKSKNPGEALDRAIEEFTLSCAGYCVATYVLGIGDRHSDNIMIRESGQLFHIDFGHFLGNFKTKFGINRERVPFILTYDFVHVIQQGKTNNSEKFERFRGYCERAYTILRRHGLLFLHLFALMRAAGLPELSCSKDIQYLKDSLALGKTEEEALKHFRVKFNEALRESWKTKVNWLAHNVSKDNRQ
T2 sequence (P27986 whole entry partner): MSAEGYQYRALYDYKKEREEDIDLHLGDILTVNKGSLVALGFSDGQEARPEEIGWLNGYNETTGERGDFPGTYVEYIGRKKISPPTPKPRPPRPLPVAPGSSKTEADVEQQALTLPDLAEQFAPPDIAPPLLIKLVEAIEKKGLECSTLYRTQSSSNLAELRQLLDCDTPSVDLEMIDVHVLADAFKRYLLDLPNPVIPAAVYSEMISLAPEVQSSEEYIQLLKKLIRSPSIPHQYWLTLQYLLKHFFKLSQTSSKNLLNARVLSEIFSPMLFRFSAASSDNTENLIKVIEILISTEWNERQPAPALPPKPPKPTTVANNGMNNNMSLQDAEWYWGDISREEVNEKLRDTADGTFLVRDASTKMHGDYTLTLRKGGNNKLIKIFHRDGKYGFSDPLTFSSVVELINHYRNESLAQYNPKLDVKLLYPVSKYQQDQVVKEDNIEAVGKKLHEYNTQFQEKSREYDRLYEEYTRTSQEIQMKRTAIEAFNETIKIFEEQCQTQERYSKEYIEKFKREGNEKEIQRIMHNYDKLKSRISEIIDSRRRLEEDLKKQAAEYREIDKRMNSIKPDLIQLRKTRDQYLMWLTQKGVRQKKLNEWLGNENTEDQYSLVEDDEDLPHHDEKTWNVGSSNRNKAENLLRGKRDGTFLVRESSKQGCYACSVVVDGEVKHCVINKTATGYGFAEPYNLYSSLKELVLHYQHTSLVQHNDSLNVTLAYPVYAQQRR
Experimental: This study aims to determine the inhibitory effect of compounds on PI3K gamma and PI3K delta in corresponding cell based assays. PI3K gamma activity was reflected by phosphorylation of AKT in C5a stimulated RAW264.7 cells, and PI3K delta activity was reflected by phosphorylation of AKT in anti-IgM stimulated Raji cells. Phosphorylation of AKT in cells was determined using AlphaLISA technology from PerkinElmer.
Raji cell assay: Prepare Passage 11 Raji cell and add 6 μL of 60K cells per well in 384-well plate. Centrifuge at 500 RPM for 30 s and incubate for 2 hours at 37° C., 5% CO2. Add 30 nL compound by Echo and incubate for 30 min at 37° C. Add 2 μL of IgM (4×, 12 μg/mL) per well, centrifuge at 500 RPM for 30 s and incubate for 10 min at 37° C. Add 2 μL of 5× lysis buffer by Multidrop. Shake 10 min on a plate shaker. Add 5 μL acceptor mix provided in the kit. Centrifuge at 1000 RPM for 1 min. Add 5 μL donor mix provided in the kit. Centrifuge at 1000 RPM for 1 min. Then incubate for 2 hours at 25° C., keep the plate in dark. Read AlphaLISA signal on Envision.
Data analysis: Fit the cpd IC50 from non-linear regression equation. Y=Bottom+(Top−Bottom)/(1+10^((Log IC50−X)*Hill Slope)) X: Log of cpd concentration Y: Inhibition

[1] = Pharmacokinetics in mice (plasma and brain concentrations); format: in vivo, CD-1 mice; conditions: male CD1 mouse, oral gavage 20 mg/kg
Experimental: The dosing solution was administered to male CD-1 mice via oral gavage (PO) at 20 mg/kg. Blood and brain tissue samples were collected at 0.5, 2 and 8 hours post-dose. The blood samples were then centrifuged for 5 minutes in a centrifuge refrigerated at 4° C. The brain samples after blood removal were homogenized in water.

4T1 cells = assay: Anti-tumor efficacy in 4T1 syngeneic mouse tumor model; format: in vivo; conditions: 4T1 in BALB/c mice, oral gavage 100 mg/kg, FIG. 1
Experimental: BALB/c mice were inoculated subcutaneously at the fourth mammary pad with 4T1 cells for tumor development. On the next day after tumor cell inoculation, the mice were assigned into 2 groups using stratified randomization with 10 mice in each group based upon their body weight and inoculation order. […] The tumor sizes were measured three times per week during the treatment. Tumor volume was calculated by the formula: length×width^2/2.

MOG35-55 induced EAE = assay: Efficacy on MOG35-55 induced EAE; format: in vivo, C57BL/6 mice; conditions: 20 mg/kg and 80 mg/kg BID PO, 14 days from day 10, FIG. 2

Chain of PI3Kγ (P48736 whole entry, species assumed): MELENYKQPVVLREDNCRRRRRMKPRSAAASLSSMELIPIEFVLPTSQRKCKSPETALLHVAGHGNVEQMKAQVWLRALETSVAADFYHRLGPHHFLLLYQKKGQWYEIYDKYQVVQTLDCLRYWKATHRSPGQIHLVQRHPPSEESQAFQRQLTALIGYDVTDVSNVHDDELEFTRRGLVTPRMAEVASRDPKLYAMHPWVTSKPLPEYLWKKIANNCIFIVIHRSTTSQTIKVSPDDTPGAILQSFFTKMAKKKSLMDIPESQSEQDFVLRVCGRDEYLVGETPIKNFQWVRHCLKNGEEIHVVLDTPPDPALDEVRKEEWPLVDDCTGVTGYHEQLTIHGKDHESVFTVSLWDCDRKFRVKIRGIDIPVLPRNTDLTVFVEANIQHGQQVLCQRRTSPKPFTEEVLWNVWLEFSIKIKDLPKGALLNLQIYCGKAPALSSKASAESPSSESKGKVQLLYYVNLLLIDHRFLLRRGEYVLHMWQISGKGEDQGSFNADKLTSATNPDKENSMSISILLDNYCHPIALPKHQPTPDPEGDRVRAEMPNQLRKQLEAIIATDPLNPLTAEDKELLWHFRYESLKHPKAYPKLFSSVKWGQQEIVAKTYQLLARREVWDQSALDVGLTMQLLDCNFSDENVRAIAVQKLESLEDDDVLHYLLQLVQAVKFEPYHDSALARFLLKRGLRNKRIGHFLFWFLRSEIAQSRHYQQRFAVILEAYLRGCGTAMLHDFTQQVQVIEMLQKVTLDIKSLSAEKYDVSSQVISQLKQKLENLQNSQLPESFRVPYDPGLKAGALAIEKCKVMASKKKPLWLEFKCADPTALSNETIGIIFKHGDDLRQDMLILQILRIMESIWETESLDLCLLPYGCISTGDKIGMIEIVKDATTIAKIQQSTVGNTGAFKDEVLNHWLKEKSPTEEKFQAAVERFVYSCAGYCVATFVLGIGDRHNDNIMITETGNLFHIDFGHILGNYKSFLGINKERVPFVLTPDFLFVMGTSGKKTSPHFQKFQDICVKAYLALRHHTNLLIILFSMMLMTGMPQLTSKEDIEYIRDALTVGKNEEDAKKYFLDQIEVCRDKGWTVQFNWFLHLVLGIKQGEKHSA

Row | IC50 (PI3Kγ) [nM] | IC50 (PI3K gamma) [nM] | IC50 (PI3K delta) [nM] | concentration at 0.5 h ([1]; CD-1, brain, read-out: Brain) [ng/g] | concentration at 2 h ([1]; CD-1, brain, read-out: Brain) [ng/g] | concentration at 8 h ([1]; CD-1, brain, read-out: Brain) [ng/g] | concentration at 0.5 h ([1]; CD-1, plasma, read-out: Plasma) [ng/mL] | concentration at 2 h ([1]; CD-1, plasma, read-out: Plasma) [ng/mL] | concentration at 8 h ([1]; CD-1, plasma, read-out: Plasma) [ng/mL] | SMILES | tumor growth (tumor volume) (4T1 cells) | clinical disability symptom (EAE clinical score) (MOG35-55 induced EAE)
1 | 1.3 | 4.3 | 2160 | – | – | – | – | – | – | CC(=O)Nc1nc(C)c(-c2cc3c(c(NS(C)(=O)=O)n2)C(=O)N([C@@H](C)C2CC2)C3)s1 [Compound 20, (S)-N-(5-(2-(1-cyclopropylethyl)-4-(methylsulfonamido)-3-oxo-2,3-dihydro-1H-pyrrolo[3,4-c]pyridin-6-yl)-4-methylthiazol-2-yl)acetamide] | – | –
2 | – | 1.6 | 1960 | 2490 | 473 | 454 | 2800 | 1200 | 1370 | CC(=O)Nc1nc(C)c(-c2cc3c(c(N4CCOCC4)n2)C(=O)N([C@@H](C)C2CC2)C3)s1 [Compound 34, (S)-N-(5-(2-(1-cyclopropylethyl)-4-morpholino-3-oxo-2,3-dihydro-M-pyrrolo[3,4-c]pyridin-6-yl)-4-methylthiazol-2-yl)acetamide] | significantly suppressed tumor growth | significantly ameliorated the clinical disability symptom
